Assay results taken from patent US6608189B1, “Fluorescent protein sensors for measuring the pH of a biological sample” (University of California, priority 1998, dated 2003).

Columns and labels:
[1] = target: YFP (yellow fluorescent protein; GFP quadruple mutant T203Y/S65G/V68L/S72A, also carrying Q80R) (Aequorea victoria) [GFP: P42212]; assay: X-ray crystal structure of YFP, largest contact area with an adjacent molecule
[2] = system: HeLa cells; assay: pH in cytosol and nucleus of cells expressing EYFP; type: cell-based; conditions: reversible on wash-out
Experimental: HeLa cells and AT-20 cells grown on glass coverslips were transiently lipo-transfected (Lipofectin™, GIBCO) with polynucleotide constructs encoding EYFP.
(§1) Cells were imaged between 2 and 4 days after transfection at 22° C. with a cooled charge-coupled device camera (Photometrices, Tucson, Ariz.) as described in Miyawaki et al., Nature 388:882, (1997). The interference filters (Omega Optical and Chroma Technology, Brattleboro, Vt.) used for excitation and emission were 440 ECFP; 480 535 EGFP or EYFP. The dichroic mirrors were 455 DCLP for ECFP and 505 DCLP for EGFP or EYFP. Regions of interest were selected manually, and pixel intensities were spatially averaged after background subtraction. A binning of 2 was used to improve signal/noise and minimize photodamage and photoisomerization of EYFP. High KCl buffer plus 5 μM each of the ionophores nigericin (Fluka) and monensin (Calbiochem) was used for in situ titrations in living cells. Cells were loaded with cytosolic pH indicators by incubation with 3 μM carboxy-SNARF/AM or BCECF/AM (Molecular Probes) for 45 minutes, then washed for 30 minutes, all at 22° C.
Calibration of fluorescence intensity with pH in situ was accomplished with a mix of the alkali cation/H+ ionophores nigericin and monensin in bath solutions of defined pH and high K+. Fluorescence equilibrated within 1-4 minutes after each exchange of solution.

[3] = system: mitochondrial matrix of HeLa cells; assay: mitochondrial matrix pH with mito-YFP H148Q in HeLa cells; type: cell-based; conditions: 10 uM in high KCl titration buffer
Experimental: The YFP H148Q mutant has a pKa of about 7.4, which is intermediate between the pKa of EYFP and YFP mutant H148G. […] Fluorescence was measured over time (beginning at t≈0), including following the addition of 10 μM nigericin in high KCL titration buffer at t≈500 seconds.
Fluorescence decreased to about 175 units at t=1000 seconds by addition of nigericin, which lowered the pH to about 6.9. Fluorescence then returned stepwise to 400 units with each change of the extracellular medium.

[4] = system: Golgi lumen of HeLa cells; assay: pH in the Golgi lumen with GT-EYFP; type: cell-based; conditions: HeLa cells expressing GT-EYFP
Experimental: as §1
The pH of the Golgi lumen was measured by transfecting HeLa or AT-20 cells with the constructs GT-ECFP, GT-EGFP, or GT-EYFP. Bright juxtanuclear fluorescence was observed, with little increase in diffuse staining above autofluorescnce in most cells.
The pH gradient across the Golgi membrane is maintained by the electrogenic ATP-dependent H^+ pump (V-ATPase). The V-ATPase generates a ΔpH (acidic inside) and Δψ(positive inside), which opposes further H^+ transport. The movement of counter-ions, Cl^− in (or K^+ out), with H^+ uptake would shunt the Δψ, allowing a larger ΔpH to be generated. These mechanisms were investigated in intact single HeLa cells transfected with GT-EYFP.

[5] = system: macrophage phagosomes; conditions: cited from earlier work
[6] = system: Golgi lumen of HeLa cells; assay: ratiometric Golgi pH with GT-EYFP and GT-ECFP; type: cell-based; conditions: cotransfected HeLa cells
Description: Quantitative measurements of fluorescence with nonratiometric indicators can suffer from artifacts as a result of cell movement or focusing. To correct for these effects, the cyan-emitting mutant GT-ECFP was co-transfected into cells along with GT-EYFP. ECFP has excitation and emission peaks that can be separated from those of EYFP by appropriate filters. In addition, ECFP is less pH-sensitive than EYFP (see FIG. 2B).
Although the ratio of EYFP to ECFP emission varied between cells, probably reflecting a different concentration of GT-EYFP and GT-ECFP in the Golgi lumen, it changed with pH as expected (FIG. 3B). Bafilomcin A1 raised the GT-EYFP/GT-ECFP emission ratio, i.e, it raised pHG.

[7] = system: mitochondrial matrix of chick skeletal myotubes; assay: mitochondrial matrix pH with mito-YFP H148G in chick skeletal myotubes; type: cell-based; conditions: 2 uM, t about 1400 seconds
Description: Fluorescence was also examined, and pH measured, in primary cultures of chick skeletal myotubes transfected with the mito-YFP H148G mutant. […] Thereafter fluorescence continued to be observed during calibration at ph 6.9, 7.6 and 8.0.

[8] = system: mitochondrial matrix of HeLa cells; assay: mitochondrial matrix pH with mito-YFP H148G in HeLa cells; type: cell-based; conditions: 5 uM
Experimental: YFP H148G expression was monitored by observing fluorescence over time. Mitochondrial pH was also monitored by pH titration as described in Example 3 using nigericin and monensin.
5 μM CCCp was added at about t≈300 seconds. […] Then a calibration was performed by perfusing the cells with extracellular medium of pH 7, 7.5, 8, and 8.35 containing the ionophores nigericin plus monensin to equilibrate mitochondrial pH and extracellular pH. Fluorescence in mitochondria increased stepwise with each change of extracellular pH.

[9] = system: mitochondrial matrix of HeLa cells; assay: pH in the mitochondrial matrix with EYFP-mito; type: cell-based; conditions: HeLa cells expressing EYFP-mito
Experimental: To measure pH in the mitochondrial matrix using mutant GFP sensor proteins, HeLa cells and neonatal rat cardiomyocytes were transfected with the fluorescent protein pH sensor EYFP-mito. A Bio-Rad MRC-1000 confocal microscope was used for analysis of the targeted protein. […] In situ pH titration was performed with nigericin/monensin as described in Example 3.

[10] = system: mitochondria of HeLa cells; assay: GFP T203I as pH-insensitive reference in mitochondria of HeLa cells; type: cell-based; conditions: control experiments
Experimental: To identify a GFP sensor protein suitable for use as a reference protein for measuring mitochondrial matrix pH, the GFP mutant T203I was expressed in the mitochondria of HeLa cells.
Fluorescence of HeLa cells transfected with the GFP T203I mutant was monitored for about 400 seconds using an excitation ratio of 480 nm/400 nm. 10 μM CCCP was then added to the cells, and fluorescence was monitored for an additional 250 seconds. […] In control experiments, it was observed that addition of CCCP corresponded to a drop in pH of about 1 unit. Thus, the GFP T203I mutant is suitable for use as a reference, pH-insensitive mutant.

Molecule: YFP (yellow fluorescent protein; GFP quadruple mutant T203Y/S65G/V68L/S72A, also carrying Q80R) (from UniProt P42212 1-238)
- contact area on one monomer surface [1]: 722 Å2

Molecule: Cl.N [NH4Cl]
- change of EYFP fluorescence (pH) on perfusion [2]: increase in fluorescence

Molecule: CO[C@@H]1C[C@@H](C[C@H]2CC[C@H](C)[C@H]([C@@H](C)C(=O)O)O2)O[C@]2(O[C@](C)([C@H]3CC[C@@](C)([C@@H]4O[C@@H]([C@H]5O[C@@](O)(CO)[C@H](C)C[C@@H]5C)C[C@@H]4C)O3)C[C@H]2C)[C@@H]1C [nigericin]
- mitochondrial pH after addition [3]: about 6.9

Molecule: CC(O)C(=O)O (stereo not shown) [lactate]
- change of EYFP fluorescence (pH) on perfusion [2]: decrease in fluorescence

Molecule: CO/C1=C\C(C)=C\[C@@H](C)[C@@H](O)[C@@H](C)C/C(C)=C/C=C/[C@H](OC)[C@@H]([C@@H](C)[C@@H](O)[C@H](C)[C@@]2(O)C[C@@H](O)[C@H](C)[C@@H](C(C)C)O2)OC1=O [bafilomycin A1]
- increase of pHG ([4]; 0.2 uM): about 0.6 units
- pHG after treatment ([4]; 0.2 uM, n=12 cells): 7.16
- initial rate of Golgi alkalinization ([4]; n=12 cells): 0.52 pH units per minute
- rate of alkalinization reported for other acidic compartments [5]: 0.09 pH/min
- GT-EYFP/GT-ECFP emission ratio (pHG) [6]: raised

Molecule: N#CC(C#N)=NNc1cccc(Cl)c1 [CCCP, carbonylcyanide m-chlorophenylhydrazone]
- mitochondrial pH after addition [7]: 6.9
- mitochondrial pH after addition [8]: 7.0
- mitochondrial pH after acidification by the protonophore [9]: ~7
- drop in pH on addition [10]: about 1 unit
